Experimental data published in publication PMC5940854, “Nitrothiophene carboxamides, a novel narrow spectrum antibacterial series: Mechanism of action and Efficacy” (Scientific Reports, 2018).
≈ marks a conversion by molar mass, not a printed value. Where “and” joins values, the source holds several entries; their conditions need not be identical. Equal values may be shown once. Read-outs that look alike come from different tables or passages of the source.

Assays:
E. coli ∆nfsB = assay: microbe, parasite or virus in culture; format: cell-based; details: Escherichia coli, read-out: MIC ∆nfsB
Protocol: To assess the biological relevance of the interacting protein and establish the link between nitroreductases to the antibacterial activity of NTC compounds, single (ΔnfsA or ΔnfsB) and double knockouts (ΔnfsA & ΔnfsB) of nitroreductases were generated by phage transduction using strains from the Keio collection.
(§1) The inoculum used for all the experiments is derived from a single seed lot that is maintained as glycerol stocks at −80 °C and are sub cultured on LB plate for isolated colonies. Single colony of each strain is grown in M9 medium. All test compound stocks and dilutions are prepared in DMSO. Serial two-fold dilutions of compounds are prepared separately, with the concentrations ranging from 2 mg/mL to 0.015 mg/mL. To 150 µl (3–7 × 10^5 CFU/ml) of bacterial culture in 96 well microtitre plates, 3 μL compound from each of the dilutions is added to respective wells to obtain final concentrations ranging from 40 µg/mL to 0.3 µg/mL of the test compounds. Media control, culture control and appropriate reference drug controls are included. […] Growth is monitored by checking absorbance at 600 nm (A600). […] The samples from MIC and above concentrations are plated for MBC (Minimum Bactericidal Concentration). The samples are diluted 1:10 and plated on LB agar plates. […] The killing kinetics is determined by enumerating survivors at various time points following compound exposure. E. coli cells (~10^7 CFU/ml; A600 of 0.1) are treated with various concentrations (40 µg/mL to 0.3 µg/mL) of compounds in a 96-well microtitre plate. At various time intervals (0 to 8 h), 30 μl volumes of treated cultures are serially diluted and plated on LB agar plates. […] Data is expressed as the log10 CFU for each drug treatment.
The wild-type E. coli strain BW25113 and the entire Keio collection of knockouts[22] is maintained as glycerol stocks at −80 °C in 96-well deep well blocks. […] These are sub cultured in 150 µl of LB broth (Kanamycin 50 ug/ml, except for the wild-type strain) in 96 well microtiter plates and then adapted into M9 medium with 0.4% glucose. […] Cultures of single gene knockouts that show an altered MIC as compared to that of the wild type are scored as ‘Hits’.

[1] = tested on: Klebsiella pneumoniae ATCC13883; assay: MIC, Klebsiella pneumoniae; format: cell-based; details: for MIC Klebsiella pneumoniae: ATCC13883; for fold lower potency in comparison to E. coli WT MIC: WT K. pneumoniae ATCC strain
Protocol: as §1

[2] = tested on: wild-type E. coli CGSC#7636 (BW25113); assay: MIC, wild-type E. coli; format: cell-based; details: for MIC: Escherichia coli, read-out: MIC WT
Protocol: as §1

NfsB = target: T1, NfsB (Escherichia coli, UniProt P38489); assay: Nitroreductase activity assay, NfsB; format: biochemical, E. coli; details: 20 μM compound, 40 μM NADH, 70 nM NfsB; slope of initial velocity
T1 construct: His-tag; made in house; host or cells: E. coli BL21(DE3), pET28a (pET-nfsB)
T1 sequence (P38489 whole entry): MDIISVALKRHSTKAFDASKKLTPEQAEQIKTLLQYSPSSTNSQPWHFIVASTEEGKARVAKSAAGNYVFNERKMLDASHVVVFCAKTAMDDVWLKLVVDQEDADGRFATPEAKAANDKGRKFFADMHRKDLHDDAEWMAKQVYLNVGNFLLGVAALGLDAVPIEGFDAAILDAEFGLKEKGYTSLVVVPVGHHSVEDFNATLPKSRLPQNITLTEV
Protocol: Enzyme reducing each of the substrates are measured by monitoring the concomitant oxidation of NADPH by NfsA and NADH by NfsB in a fluorescence based assay. The reduction in fluorescence due to the NADH oxidation (excitation 350 nm, emission 460 nm) and NADPH oxidation (excitation 340 nm, emission 485 nm) is recorded using a TECAN Infinite M200Pro spectrophotometer, in half area solid black microtiter plates. This change in fluorescence directly corelates to the reduction of the nitro-compounds in the reaction. The NfsA assays is performed by initiating the reactions with 40 μM NADPH and 10 nM NfsA in 50 mM Tris-HCl (pH 7.4), 5 mM EDTA against 20 μM substrate (5 μl of compounds/substrate dissolved in 100% DMSO) in a total reaction volume of 100 μl at 25 °C. Similarly, the NfsB assay is also performed by initiating the reactions with 40 μM NADH and 70 nM NfsB in 50 mM Tris-HCl (pH 7.4), 5 mM EDTA against 20 μM substrate in a total reaction volume of 100 μl. […] All reactions are performed in replicates of two or more and the fluorescence measurements are made at 10 second intervals for 5–10 minutes.
Low solubility of the compounds/substrates under the NfsA and NfsB assay conditions precluded determination of their Km. […] The relative fluorescence units (RFU) obtained due to NADPH (excitation 340 nm, emission 485 nm) or NADH (excitation 350 nm, emission 460 nm) oxidation of the first 90 sec reaction is used to compute the slopes using linear regression analysis on GraphPad Prism. Appropriate blank reactions are included to account for background fluorescence/quenching from each of the components such as DMSO, the compound itself and auto-oxidation of NADPH or NADH. Activity of NfsB with a known substrate such as nitrofurantoin is used as a benchmark to plot the relative activities with all the test compounds.

AcrB = target: T2, AcrB (Escherichia coli, UniProt P31224); assay: Thermal shift assay with CPM dye; parameters: species or system E. coli; details: AcrB vs apo-protein; > 1°C implies binding
T2 construct: Full length acrB gene was amplified from E. coli; BW25113; His-tag (C); made in house; host or cells: E. coli C43(DE3), plasmid pET21a
T2 sequence (P31224 whole entry): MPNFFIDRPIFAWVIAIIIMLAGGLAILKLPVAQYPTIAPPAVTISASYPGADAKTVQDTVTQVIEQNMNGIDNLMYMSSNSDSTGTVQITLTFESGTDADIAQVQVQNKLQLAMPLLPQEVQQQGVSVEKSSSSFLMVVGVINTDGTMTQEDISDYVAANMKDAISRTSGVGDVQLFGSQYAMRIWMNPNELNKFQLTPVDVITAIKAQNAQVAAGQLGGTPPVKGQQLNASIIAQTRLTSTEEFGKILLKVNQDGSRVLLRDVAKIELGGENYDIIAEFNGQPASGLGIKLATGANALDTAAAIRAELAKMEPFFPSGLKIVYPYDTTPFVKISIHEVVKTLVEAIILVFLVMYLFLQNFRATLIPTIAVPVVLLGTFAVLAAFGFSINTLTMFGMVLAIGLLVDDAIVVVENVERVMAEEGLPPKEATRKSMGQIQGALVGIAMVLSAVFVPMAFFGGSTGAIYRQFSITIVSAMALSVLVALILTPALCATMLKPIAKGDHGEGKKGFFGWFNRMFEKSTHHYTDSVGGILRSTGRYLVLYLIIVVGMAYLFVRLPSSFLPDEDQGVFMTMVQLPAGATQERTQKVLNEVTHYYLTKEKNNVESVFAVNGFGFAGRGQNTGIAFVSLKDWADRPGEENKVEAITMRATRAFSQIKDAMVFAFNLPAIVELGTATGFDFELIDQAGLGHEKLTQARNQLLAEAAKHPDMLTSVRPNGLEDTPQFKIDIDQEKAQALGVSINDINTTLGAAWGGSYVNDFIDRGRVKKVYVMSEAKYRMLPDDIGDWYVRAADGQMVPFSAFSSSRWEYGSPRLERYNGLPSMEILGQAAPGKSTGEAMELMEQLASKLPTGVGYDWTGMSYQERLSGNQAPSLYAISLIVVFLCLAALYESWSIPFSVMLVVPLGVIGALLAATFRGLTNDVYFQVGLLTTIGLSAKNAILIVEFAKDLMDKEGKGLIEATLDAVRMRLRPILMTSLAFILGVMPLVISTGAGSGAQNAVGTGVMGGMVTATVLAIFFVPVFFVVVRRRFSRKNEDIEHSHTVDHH
Protocol: AcrB overexpression protocol is adopted from Du. et al.[31]. Full length acrB gene was amplified from E. coli. BW25113 using Forward Primer 5′-[…]-3′ Reverse Primer 5′-[…]-3′ and cloned into the plasmid pET21a. The resultant plasmid that would express AcrB with a C-terminal His-tag is transformed into E. coli strain C43(DE3). The cells are induced on reaching A600 = 0.6 and transferred to 18 °C. The culture is harvested by centrifugation and re-suspended in Buffer A (100 mM Sodium Phosphate, 100 mM NaCl, 10 mM Imidazole, pH = 7.4, 100 µg/ml protease inhibitor cocktail from Roche and 5 U/ml DNase I and 5 mg/ml lysozyme). The cells are lysed at 15000 psi using Emulsiflex and centrifuged at 8000 g for removing cell debris. The membrane is isolated by centrifuging the resultant supernatant at 125000 g (see Coomassie stained SDS-PAGE of the purified protein Figure S9). Membrane solubilisation is done using Buffer A and 1.5% DDM (n-Dodecyl-β-D-Maltoside). Ni-NTA chromatography is used to purify the His-tagged protein and eluted in Buffer A with 300 mM Imidazole and 1.5% DDM.
The assay is performed according to protocols established elsewhere. CPM (N- [4-(7-diethylamino-4-methyl-3-coumarinyl) phenyl] maleimide) is a thiol specific fluorochrome (Excitation 387 nm, Emission 463 nm) and is non-fluorescent in an unbound state. The proteins, on thermal unfolding exposes cysteines allowing the CPM to bind and fluoresce. […]. The thermal denaturation is performed in a fluorimeter that is heated from 25 to 90 °C at a ramp rate of 1 °C/min. The Tm is calculated by analysing the melting profiles using Boltzmann Sigmoid function (GraphPad Prism) and ∆Tm is calculated by measuring the difference between the Tm of inhibitor bound protein and the apo-protein.

[3] = tested on: E. coli ∆nfsAB & ∆acrB+nfnB; parameters: unit not given beside the values
Protocol: as §1

**Q.** With `COc1cc(-c2csc(NC(=O)c3ccc([N+](=O)[O-])s3)n2)ccc1Cl` [compound 20, N-(4-(4-chloro-3-methoxyphenyl)thiazol-2-yl)-5-nitrothiophene-2-carboxamide] as the compound, how does the MIC (E. coli ∆nfsB) read?
**A.** 2.5 µg/mL (≈ 6.32 µM)

**Q.** And the MIC Klebsiella pneumoniae [1]?
**A.** 10 µg/mL (≈ 25.3 µM)

**Q.** And the “fold lower potency in comparison to E. coli WT MIC” value [1]?
**A.** 4-8 fold

**Q.** And the MIC ([2]; BW25113, Table S11)?
**A.** 1.25 µg/mL (≈ 3.16 µM)

**Q.** And the “NfsB activity (rate of compound conversion)” value (shortened to “NfsB activity”) (NfsB)?
**A.** 3.50 µM/min

**Q.** And the “∆Tm” value (AcrB)?
**A.** 1.86 °C and < 2 °C

**Q.** What about the “MIC ∆nfsAB & ∆acrB+nfnB” value [3] of the same compound?
**A.** 0.6

**Q.** Which results are given for `O=C(Nc1nc(-c2ccc(F)cc2)cs1)c1ccc([N+](=O)[O-])s1` [compound 15, N-(4-(4-Fluorophenyl)thiazol-2-yl)-5-nitrothiophene-2-carboxamide]?
**A.** MIC (E. coli ∆nfsB): 5 µg/mL (≈ 14.3 µM); MIC Klebsiella pneumoniae [1]: 5 µg/mL (≈ 14.3 µM); fold lower potency in comparison to E. coli WT MIC [1]: 4-8 fold; MIC ([2]; BW25113, E. coli WT BW25113): 1.25 µg/mL (≈ 3.58 µM); MIC ([2]; BW25113, Table S11): 1.25 µg/mL (≈ 3.58 µM); NfsB activity (rate of compound conversion) (NfsB): 7.64 µM/min; ∆Tm (AcrB): 1.75 °C and < 2 °C; MIC ∆nfsAB & ∆acrB+nfnB [3]: 0.6

**Q.** With `O=C1CN(/N=C/c2ccc([N+](=O)[O-])o2)C(=O)N1` [nitrofurantoin, reference compound] as the compound, how does the MIC (E. coli ∆nfsB) read?
**A.** 2.5 µg/mL (≈ 10.5 µM)

**Q.** And the MIC ([2]; BW25113, E. coli WT BW25113)?
**A.** 2.5 µg/mL (≈ 10.5 µM)

**Q.** What about the “NfsB activity” value (NfsB) of the same compound?
**A.** 3.50 µM/min

**Q.** Which MIC (E. coli ∆nfsB) does the source give for `O=C(Nc1nc(-c2ccc(F)cc2F)cs1)c1ccc([N+](=O)[O-])s1` [compound 12, N-(4-(2,4-difluorophenyl)thiazol-2-yl)-5-nitrothiophene-2-carboxamide] here?
**A.** 2.5 µg/mL (≈ 6.81 µM)

**Q.** And the MIC Klebsiella pneumoniae [1]?
**A.** 2.5 µg/mL (≈ 6.81 µM)

**Q.** What about the “fold lower potency in comparison to E. coli WT MIC” value [1] of the same compound?
**A.** 4-8 fold

**Q.** What about the MIC ([2]; BW25113, E. coli WT BW25113) of the same compound?
**A.** 0.6 µg/mL (≈ 1.63 µM)

**Q.** And the MIC ([2]; BW25113, Table S11)?
**A.** 0.6 µg/mL (≈ 1.63 µM)

**Q.** What about the “NfsB activity” value (NfsB) of the same compound?
**A.** 6.26 µM/min

**Q.** What about the “∆Tm” value (AcrB) of the same compound?
**A.** 0.68 °C

**Q.** And the “MIC ∆nfsAB & ∆acrB+nfnB” value [3]?
**A.** 0.3

**Q.** What does the source list for `Cc1sc(NC(=O)c2ccc([N+](=O)[O-])s2)nc1-c1ccccc1` [compound 7, N-(5-Methyl-4-phenylthiazol-2-yl)-5-nitrothiophene-2-carboxamide]?
**A.** MIC (E. coli ∆nfsB): > 40 µg/mL; MIC WT ([2]; E. coli WT BW25113): >40 µg/mL; MIC ([2]; BW25113, E. coli WT BW25113): > 40 µg/mL; NfsB activity (rate of compound conversion) (NfsB): 6.17 µM/min; ∆Tm (AcrB): 4.13 °C
